Assay results as given in US20110070329A1, “1-tert-Butylcyclohexanecarboxamide and uses thereof as cooling compounds” (priority 2009, published 2011).
Entries after “also recorded” stand apart in the source; their conditions may differ.

Legend:
[1] = Flavor evaluation, tasted in water at 10 ppm
Source text: After expectorating, cooling began to build over time. The residual cooling (approx. five minutes) after expectorating earned a rating of 4 while when the cooler was in mouth, it was rated a 1 (on a scale of 1 to 9) when tasted in water at 10 ppm.

[2] = Evaluation of cooler mixed with fondant
Source text: In this example, Structure III was mixed with a fondant, commercially available from Confectionary House, Troy, N.Y., at levels listed in Table 1.

[3] = Chewing gum evaluation by trained descriptive analysis panel; conditions: level 0.20%
Description: The following gum base formulation was prepared: […]
Structure III by itself at levels detailed in the Table III was blended with the gum base in a Sigma mixer. The resultant chewing gum blend was then manufactured into strips 1 inch in width and 0.1 inches in thickness. These strips were cut into lengths of 3 inches each.
Samples were profiled by a highly trained descriptive analysis panel. The ballot consisted of the following terms: Total impact, total mint, cooling-mouth closed, cooling—breath in, nasal cooling—breathe in, throat irritation, bitterness, tongue irritation, numbing. Each attribute was rated at discrete time points including 1 minute, 3 minutes, 5 minutes, 10 minutes, 20 minutes, and 30 minutes.

SMILES | flavor properties when tasted in water [1] | residual cooling rating after expectorating ([1]; approx. five minutes after expectorating, scale of 1 to 9) | cooling rating when the cooler was in mouth ([1]; in mouth, scale of 1 to 9) | COMMENTS (cooling evaluation in fondant) ([2]; 50 ppm) | COMMENTS (cooling evaluation in fondant) ([2]; 100 ppm) | Time and Evaluation (chewing gum) ([3]; 0-1 minute) | Time and Evaluation (chewing gum) ([3]; 1-3 minutes) | Time and Evaluation (chewing gum) ([3]; 3-5 minutes) | Time and Evaluation (chewing gum) ([3]; 5-10 minutes) | Time and Evaluation (chewing gum) ([3]; 10-20 minutes) | Time and Evaluation (chewing gum) ([3]; 20-30 minutes)
CC(C)(C)C1(C(=O)NCCc2ccccn2)CCCCC1 [Structure II, 1-tert-butyl-N-[2-(pyridine-2-yl)ethyl]cyclohexanecarboxamide] | honey, cream soda, slightly bitter, cooling flavor properties after about thirty seconds |  |  |  |  |  |  |  |  |  | 
CC(C)(C)C1(C(=O)NCc2ccccn2)CCCCC1 [Structure III, 1-tert-butyl-N-[(pyridine-2-yl)methyl]cyclohexanecarboxamide] | did not have much cooling except on breath-in. After expectorating, cooling began to build over time | 4 | 1 | Slight cooling but quick onset, fills mouth | Quick onset slight bitterness perceived | Sweet, citrus. Not cooling slightly bitter | Cooling is perceivable, but weak. | bitterness., cooling very weak; also recorded: More cooling. Cooling when breathing. Little | Cooling is all over the mouth. Some bitterness; also recorded: is perceivable, very slight cooling again very; also recorded: weak | Cooling is all over the mouth but not very; also recorded: intensive., little to no cooling | More bitterness is perceivable. Cooling is; also recorded: moderate and slowly starting to decline; also recorded: little to no cooling
CC(C)(C)C1(C(=O)Nc2ccc(CC#N)cc2)CCCCC1 [Structure I, 1-tert-butyl-N-[4-(cyanomethyl)phenyl]cyclohexanecarboxamide] | bitter upfront, intense cooling upon expectorating |  |  |  |  |  |  |  |  |  | 
